Data set [1] relates to Candida albicans. Put plainly: Antifungal activity against Candida albicans NCIM-3557 after 48 hrs by broth microdilution assay. It counts as functional. As to conditions: NCIM-3557, 48 h.
Data set [2] is described as follows: Toxicity against Lactobacillus acidophilus at 200 ug/ml after 24 hrs by microplate reader.
The next data set has as its system Trichomonas vaginalis. Nature of the data set: Antitrichomonas activity against Trichomonas vaginalis after 48 hrs by trypan blue exclusion assay. It counts as functional.
The subject of another data set is Spermatozoa. Nature of the data set: Spermicidal activity against human spermatozoa assessed as immobilization measured for 60 seconds by visual scoring. Format: functional. Also noted: concentration or dose not given beside the values.
The subject of data set [3] is Candida albicans. Put plainly: Antifungal activity against Candida albicans after 48 hrs by broth microdilution assay. Format: functional. A general note: In broth dilution the organism is exposed to a series of concentrations in liquid medium.
Data set [4] relates to Candida albicans. Nature of the data set: Antifungal activity against Candida albicans isolate CDRI after 48 hrs by broth microdilution assay. It counts as functional.
The subject of the next data set is Candida parapsilosis. Put plainly: Antifungal activity against Candida parapsilosis after 48 hrs by broth microdilution assay. It counts as functional. As to conditions: Lodderomyces parapsilosis.
The next data set concerns HeLa. Nature of the data set: Cytotoxicity against human HeLa cells at 200 ug/ml after 24 hrs by MTT based colorimetric assay. Format: cell-based.
In data set [5] the test system is Candida albicans. Put plainly: Antifungal activity against Candida albicans MTCC-183 after 48 hrs by broth microdilution assay. Format: functional. As to conditions: MTCC-183, 48 h.

≈ marks a conversion by molar mass, not a printed value.

8 compounds from ChEMBL document CHEMBL1641578, “Design and synthesis of 3-(azol-1-yl)phenylpropanes as microbicidal spermicides for prophylactic contraception” (Bioorg Med Chem Lett, 2011) can be followed below.

Broadly, the MIC is the lowest concentration that inhibits growth of the organism. As to `FC(F)(F)c1ccc(OC/C=C/c2ccccc2)cc1`, the MIC is > 50 µg/mL with Candida albicans [1]; > 200 µg/mL against Trichomonas vaginalis; > 50 µg/mL with Candida albicans [3]; 50 µg/mL (≈ 180 µM) against Candida albicans [4]; > 50 µg/mL in the data set with Candida parapsilosis; > 50 µg/mL with Candida albicans [5]. Further, the Activity entry is recorded as “Non-toxic” in data set [2], 90% in the data set on Spermatozoa and “Non-toxic” in the data set on HeLa.
As for `Cc1ncc([N+](=O)[O-])n1CCC(=O)c1ccccc1`, the MIC in the data set with Candida albicans [1] was > 50 µg/mL; against Trichomonas vaginalis, 50 µg/mL (≈ 193 µM); against Candida albicans [3] it was > 50 µg/mL; against Candida albicans [4], 50 µg/mL (≈ 193 µM); against Candida parapsilosis it was > 50 µg/mL; against Candida albicans [5], > 50 µg/mL. The Activity entry is “Non-toxic” in data set [2], 90% in the data set on Spermatozoa and “Non-toxic” in the data set on HeLa.
Regarding `FC(F)(F)c1ccc(OC(CCn2cncn2)c2ccccc2)cc1` (configuration not stated), the minimal inhibitory concentration (MIC) was > 50 µg/mL in the data set with Candida albicans [1]; 50 µg/mL (≈ 144 µM) against Trichomonas vaginalis; 50 µg/mL (≈ 144 µM) against Candida albicans [3]; > 50 µg/mL against Candida albicans [4]; > 50 µg/mL in the data set on Candida parapsilosis; 50 µg/mL (≈ 144 µM) with Candida albicans [5]. In addition, the Activity result was “Toxic” in data set [2], 100% in the data set on Spermatozoa and “Toxic” with HeLa.
Take `FC(F)(F)c1ccc(OC(CCn2nnc3ccccc32)c2ccccc2)cc1` (configuration not stated): the MIC in the data set with Candida albicans [1] is > 50 µg/mL; in the data set with Trichomonas vaginalis it was > 200 µg/mL; with Candida albicans [3], > 50 µg/mL; against Candida albicans [4], > 50 µg/mL; in the data set with Candida parapsilosis it was > 50 µg/mL; against Candida albicans [5] it was > 50 µg/mL. In addition, the Activity entry in [2] is recorded as “Non-toxic”; in the data set on Spermatozoa, 70%; in the data set on HeLa it was “Non-toxic”.
Regarding `Cc1ncc([N+](=O)[O-])n1CCC(Oc1ccc(C(F)(F)F)cc1)c1ccccc1` (configuration not stated), the MIC in the data set with Candida albicans [1] is > 50 µg/mL; in the data set with Trichomonas vaginalis, 25 µg/mL (≈ 61.7 µM); in the data set on Candida albicans [3], > 50 µg/mL; in the data set on Candida albicans [4] it was > 50 µg/mL; against Candida parapsilosis, > 50 µg/mL; with Candida albicans [5], > 50 µg/mL. For the same compound, the Activity result in data set [2] is “Non-toxic”; in the data set with Spermatozoa, 70%; in the data set on HeLa it was “Non-toxic”.
For the compound `Cc1ncc([N+](=O)[O-])n1CCC(O)c1ccccc1` (configuration not stated), the MIC in the data set on Candida albicans [1] is > 50 µg/mL; in the data set with Trichomonas vaginalis, 50 µg/mL (≈ 191 µM); with Candida albicans [3], > 50 µg/mL; in the data set with Candida albicans [4], > 50 µg/mL; in the data set with Candida parapsilosis, > 50 µg/mL; with Candida albicans [5], > 50 µg/mL. For the same compound, the values for the Activity entry (in data set [2]; with Spermatozoa; in the data set on HeLa) were “Non-toxic”, 70% and “Non-toxic”, respectively.
As for `Cc1nccn1CCC(Oc1ccc(C(F)(F)F)cc1)c1ccccc1` (configuration not stated), the MIC was 50 µg/mL (≈ 139 µM) in the data set with Candida albicans [1]; 25 µg/mL (≈ 69.4 µM) in the data set on Trichomonas vaginalis; 25 µg/mL (≈ 69.4 µM) in the data set on Candida albicans [3]; 50 µg/mL (≈ 139 µM) against Candida albicans [4]; 50 µg/mL (≈ 139 µM) against Candida parapsilosis; 25 µg/mL (≈ 69.4 µM) against Candida albicans [5]. Further, the Activity result was “Toxic” in data set [2], 100% with Spermatozoa and “Toxic” in the data set on HeLa.
Turning to `O=C(CCn1ccnc1)c1ccccc1`, the MIC in the data set with Candida albicans [1] was > 50 µg/mL; against Trichomonas vaginalis, > 200 µg/mL; against Candida albicans [3] it was > 50 µg/mL; against Candida albicans [4], 50 µg/mL (≈ 250 µM); against Candida parapsilosis it was > 50 µg/mL; in the data set with Candida albicans [5], > 50 µg/mL. The Activity entry in data set [2] was “Non-toxic”; in the data set on Spermatozoa it was 100%; in the data set with HeLa, “Non-toxic”.
